In PubChem BioAssay (NCI):
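Tested at 5 concentrations; 48 h exposure; 96-well plates; endpoints linearly interpolated, else capped at highest concentration. Abbreviation: GI50, concentration required for 50% inhibition of growth. TGI: total growth inhibition.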

Legend:
Test in all cases: NCI-60 cell line screen, 48 h
[1] = system: 786-0 renal
[2] = system: A498 renal
[3] = system: A549 NSCLC
[4] = system: ACHN renal
[5] = system: BT-549 breast
[6] = system: CAKI-1 renal
[7] = system: CCRF-CEM leukemia
[8] = system: COLO 205 colon
[9] = system: DU-145 prostate
[10] = system: EKVX NSCLC
[11] = system: HCC-2998 colon
[12] = system: HCT-116 colon
[13] = system: HCT-15 colon
[14] = system: HL-60(TB) leukemia
[15] = system: HOP-62 NSCLC
[16] = system: HOP-92 NSCLC
[17] = system: HS 578T breast
[18] = system: HT29 colon
[19] = system: IGROV1 ovarian
[20] = system: K-562 leukemia
[21] = system: KM12 colon
[22] = system: LOX IMVI melanoma
[23] = system: M14 melanoma
[24] = system: MALME-3M melanoma
[25] = system: MCF7 breast
[26] = system: MDA-MB-231 breast
[27] = system: MDA-MB-435
[28] = system: MDA-MB-468 breast
[29] = system: MOLT-4 leukemia
[30] = system: NCI-H226 lung
[31] = system: NCI-H23 lung
[32] = system: NCI-H460 lung
[33] = system: NCI-H522 lung
[34] = system: NCI/ADR-RES ovarian
[35] = system: OVCAR-3 ovarian
[36] = system: OVCAR-4 ovarian
[37] = system: OVCAR-5 ovarian
[38] = system: OVCAR-8 ovarian
[39] = system: PC-3 prostate
[40] = system: RPMI-8226 leukemia
[41] = system: RXF 393 renal
[42] = system: SF-268 CNS
[43] = system: SF-295 CNS
[44] = system: SF-539 CNS
[45] = system: SK-MEL-2 melanoma
[46] = system: SK-MEL-28 melanoma
[47] = system: SK-MEL-5 melanoma
[48] = system: SK-OV-3 ovarian
[49] = system: SN12C renal
[50] = system: SNB-19 CNS
[51] = system: SNB-75 CNS
[52] = system: SR leukemia
[53] = system: SW-620 colon
[54] = system: T-47D breast
[55] = system: TK-10 renal
[56] = system: U251 CNS
[57] = system: UACC-257 melanoma
[58] = system: UACC-62 melanoma
[59] = system: UO-31 renal

With `Cc1cc(N=C2NC(=O)/C(=C/c3cc(C(C)(C)C)c(O)c(C(C)(C)C)c3)S2)n[nH]1` the GI50 [1] was 3.81 µM, the TGI [1] was 15.7 µM and the GI50 [2] was 1.49 µM. For the same compound, the TGI [2] was 11.1 µM, the GI50 [3] was 2.61 µM and the TGI [3] was 18.3 µM. For the same compound, the GI50 [4] was 3.25 µM, the TGI [4] was 14.4 µM and the GI50 [5] was 2.63 µM. The TGI [5] was 12.2 µM, the GI50 [6] was 2.71 µM and the TGI [6] was 19.1 µM. The GI50 [7] was 1.9 µM, the TGI [7] was 14.9 µM and the GI50 [8] was 4.41 µM. It also gave a TGI [8] of 18.9 µM, a GI50 [9] of 4.87 µM and a TGI [9] greater than 100 µM. The GI50 [10] was 1.9 µM, the TGI [10] was 10.8 µM and the GI50 [11] was 4.22 µM. It also gave a TGI [11] of 16.4 µM, a GI50 [12] of 1.88 µM and a TGI [12] of 12.8 µM. The GI50 [13] was 1.5 µM, the TGI [13] was 13.2 µM and the GI50 [14] was 4.27 µM. The TGI [14] was 23.8 µM, the GI50 [15] was 3.67 µM and the TGI [15] was 21.1 µM. For the same compound, the GI50 [16] was 1.87 µM, the TGI [16] was 14.7 µM and the GI50 [17] was 1.98 µM. For the same compound, the TGI [17] was 13.2 µM, the GI50 [18] was 4.79 µM and the TGI [18] was 25 µM. The GI50 [19] was 2.47 µM, the TGI [19] was 16.8 µM and the GI50 [20] was 2.47 µM. The TGI [20] was greater than 100 µM, the GI50 [21] was 4.28 µM and the TGI [21] was 18 µM. It also gave a GI50 [22] of 2.29 µM, a TGI [22] of 14.5 µM and a GI50 [23] of 4.58 µM. For the same compound, the TGI [23] was 19.2 µM, the GI50 [24] was 2.7 µM and the TGI [24] was 14.2 µM. The GI50 [25] was 1.93 µM, the TGI [25] was 12.2 µM and the GI50 [26] was 5.7 µM. It also gave a TGI [26] of 20 µM, a GI50 [27] of 4.04 µM and a TGI [27] of 16.4 µM. It also gave a GI50 [28] of 2.55 µM, a TGI [28] of 13.2 µM and a GI50 [29] of 2.39 µM. The TGI [29] was 14 µM, the GI50 [30] was 1.89 µM and the TGI [30] was 15.1 µM. It also gave a GI50 [31] of 2.45 µM, a TGI [31] of 13.3 µM and a GI50 [32] of 0.755 µM. The TGI [32] was 10.5 µM, the GI50 [33] was 5.35 µM and the TGI [33] was 20.5 µM. For the same compound, the GI50 [34] was 1.35 µM, the TGI [34] was 14.3 µM and the GI50 [35] was 3.68 µM. It also gave a TGI [35] of 18.1 µM, a GI50 [36] of 3.09 µM and a TGI [36] of 17.7 µM. For the same compound, the GI50 [37] was 5.61 µM, the TGI [37] was 19.4 µM and the GI50 [38] was 3.69 µM. For the same compound, the TGI [38] was 19.6 µM, the GI50 [39] was 1.78 µM and the TGI [39] was 22.3 µM. The GI50 [40] was 2.43 µM, the TGI [40] was 13.3 µM and the GI50 [41] was 2.19 µM. It also gave a TGI [41] of 11.8 µM, a GI50 [42] of 4.69 µM and a TGI [42] of 24.2 µM. It also gave a GI50 [43] of 1.07 µM, a TGI [43] of 10.8 µM and a GI50 [44] of 4.6 µM. The TGI [44] was 16.4 µM, the GI50 [45] was 4.35 µM and the TGI [45] was 18.8 µM. For the same compound, the GI50 [46] was 4.67 µM, the TGI [46] was 17.1 µM and the GI50 [47] was 1.63 µM. For the same compound, the TGI [47] was 3.66 µM, the GI50 [48] was 5.58 µM and the TGI [48] was 21.1 µM. It also gave a GI50 [49] of 2.7 µM, a TGI [49] of 14.8 µM and a GI50 [50] of 3.26 µM. For the same compound, the TGI [50] was 15.8 µM, the GI50 [51] was 4.6 µM and the TGI [51] was 20.1 µM. The GI50 [52] was 3.33 µM, the TGI [52] was 40.6 µM and the GI50 [53] was 3.71 µM. The TGI [53] was 14.2 µM, the GI50 [54] was 2.41 µM and the TGI [54] was 24.9 µM. For the same compound, the GI50 [55] was 6.19 µM, the TGI [55] was 23.8 µM and the GI50 [56] was 2.15 µM. For the same compound, the TGI [56] was 13.6 µM, the GI50 [57] was 4.63 µM and the TGI [57] was 19 µM. The GI50 [58] was 3.58 µM, the TGI [58] was 15.3 µM and the GI50 [59] was 2.1 µM. It also gave a TGI [59] of 14.5 µM.
